The source of these data is PubChem BioAssay AID743298 (Broad Institute, 2014).

Several values for one entry are separate records, joined by “and”; a condition that tells them apart may be missing. Equal entries are not always repeated. Activity calls are given as the source filed them.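 How the source made its calls: active means fitted AC50 at or below twice the top valid dose for that sample, signal falling; inconclusive means flat curve at 30 to 70 percent inhibition, or bad fit; inactive means the rest.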

One assay concerns C. neoformans growth, alamar blue, 24 h. Kind of assay: cell lysis of Cryptococcus neoformans, alamar blue – dry powder, set 3, mechanism study for C. neoformans antifungal project, dose response (AID 743298).
Conditions: not given
Turning to `Cc1cccc(OCCn2c(=S)[nH]c3ccccc32)c1`, the AC50 is 21.1 µM.
In the case of `CC(C)c1ccccc1OCCn1c(=S)[nH]c2ccccc21`, the AC50 is 20.1 µM.
The same measure, in the same setting: then `CC(C)(C)c1ccc(OCCn2cnc3ccccc32)cc1`, with 17.5 µM.
As for `COc1cccc(OCCn2c(=S)[nH]c3ccccc32)c1`, the AC50 was 28.8 µM.
Still for that read-out and setting: the figure for `Fc1ccccc1OCCn1c(=S)[nH]c2ccccc21` is 23 µM; for `Cc1ccc(C(C)C)c(OCCn2c(=S)[nH]c3ccccc32)c1` it is 9.65 µM and 9.22 µM.
The same measure, in the same setting: the figure for `Fc1cccc(OCCn2c(=S)[nH]c3ccccc32)c1` is 25.6 µM; for `Fc1cccc2c1[nH]c(=S)n2CCOc1ccccc1` it is 20 µM and 22.2 µM; for `Cc1ccccc1OCCn1c(=S)[nH]c2ccccc21` it is > 70 µM (inactive).
Consider `S=c1[nH]c2ccccc2n1CCOc1ccccc1Cl`, for which the AC50 was 34 µM.
Consider `Cc1cccc(OCCn2c(=S)[nH]c3cc(F)ccc32)c1`, for which the AC50 is 12.1 µM and 11.7 µM.
On the same count and under the same terms, the figure for `Cc1ccc(OCCn2c(=S)[nH]c3ccccc32)c(C(C)C)c1` is 12.3 µM and 10.4 µM.
On the same count and under the same terms, the figure for `Cc1ccc(OCCn2cnc3ccccc32)c(C(C)C)c1` is > 70 µM (inactive).
Still for that read-out and setting: the figure for `O=c1[nH]c2ccccc2n1CCOc1ccccc1` is 34 µM; for `CC(C)c1ccc(OCCn2c(=S)[nH]c3ccccc32)cc1` it is 5.77 µM.
Turning to `Cc1ccc(OCCn2c(SCCO)nc3ccccc32)c(C(C)C)c1`, the AC50 is 26 µM.
The same measure, in the same setting: then `Cc1ccc2c(c1)[nH]c(=S)n2CCOc1ccccc1`, with 12.2 µM and 12.4 µM.
Regarding `COc1ccc(OCCn2c(=S)[nH]c3ccccc32)cc1`, the AC50 is 30.3 µM.
The same measure, in the same setting: then `S=c1[nH]c2ccccc2n1CCOc1ccc(Cl)cc1`, with 6.01 µM.
As for `Fc1ccc2c(c1)[nH]c(=S)n2CCOc1ccccc1`, the AC50 is 27.5 µM and 26.8 µM.
The same measure, in the same setting: then `CCOc1ccc(OCCn2c(=S)[nH]c3ccccc32)cc1`, with 12.3 µM; and `S=c1[nH]c2ccccc2n1CCOc1ccccc1`, with 24.4 µM.
On the same count and under the same terms, the figure for `Cc1ccc(OCCn2c(=S)[nH]c3ccccc32)cc1` is 5.63 µM; for `Cc1cccc2[nH]c(=S)n(CCOc3ccccc3)c12` it is 15.1 µM; for `S=c1[nH]c2cccc(Cl)c2n1CCOc1ccccc1` it is 6.34 µM and 6.02 µM.
The same measure, in the same setting: then `Cc1ccc(OCCn2c(C)nc3ccccc32)cc1`, with 21.9 µM; and `CC(C)(C)c1ccc(OCCn2c(=S)[nH]c3ccccc32)cc1`, with 7.11 µM; and `CC(C)(C)c1ccccc1OCCn1c(=S)[nH]c2ccccc21`, with 11.2 µM.
With `Cc1ccc(C(C)C)c(OCCn2c(=S)[nH]c3cccc(F)c32)c1`, the AC50 is 13.9 µM.
For `Cc1ccc(OCCn2cnc3ccccc32)cc1`, the AC50 is 12 µM.
Same read-out and setting: the figure for `Cc1ccc(C(C)C)c(OCCn2c(=S)[nH]c3cccc(Cl)c32)c1` is 9.67 µM; for `Fc1ccc2[nH]c(=S)n(CCOc3ccccc3)c2c1` it is 25.2 µM.

Tested on in the next assay: not listed separately
The description is as above. To be noted: C. neoformans growth, alamar blue, 24 h; at 35 µM (top of the series).
Consider `Cc1ccc(C(C)C)c(OCCn2c(=S)[nH]c3ccc(F)cc32)c1`, for which the activity change, negative = inhibition is 44.9% (inactive).
Take `CC(C)c1ccccc1NCCn1c(=S)[nH]c2ccccc21`: the activity change, negative = inhibition was 34.7% (inactive).
As for `CSc1nc2ccccc2n1CCOc1cc(C)ccc1C(C)C`, the activity change, negative = inhibition is -25.9% (inactive).
Same read-out and setting: then `Cc1ccc(C)c(OCCn2c(=S)[nH]c3ccccc32)c1`, with 26.6% (inactive); and `Cc1cccc(OCCn2c(=S)[nH]c3ccccc32)c1C`, with 51.8% (inactive).
The same measure, in the same setting: the figure for `Cc1ccc(C(C)C)c(OCCn2c(CO)nc3ccccc32)c1` is 8.72% (inactive).
Turning to `COCc1nc2ccccc2n1CCOc1ccc(C(C)(C)C)cc1`, the activity change, negative = inhibition was 5.49% (inactive).
The same measure, in the same setting: then `Cc1ccc(OCCn2c(=S)[nH]c3ccccc32)c(C)c1`, with 12.9% (inactive); and `Cc1cccc(OCCn2c(=S)[nH]c3c(F)cccc32)c1`, with -5.91% (inactive) and -16.2% (inactive); and `Cc1ccc(C(C)C)c(OCCn2c(=S)[nH]c3ccc(Cl)cc32)c1`, with 30.7% (inactive).
Still for that read-out and setting: then `Cc1cccc(OCCn2c(=S)[nH]c3cc(C(F)(F)F)ccc32)c1`, with 19% (inactive); and `S=c1[nH]c2cc(Cl)ccc2n1CCOc1ccccc1`, with 39.6% (inactive); and `Cc1ccc(C(C)C)c(OCCn2c(=S)[nH]c3cc(F)ccc32)c1`, with 55% (inactive).
As to `COc1ccccc1OCCn1c(=S)[nH]c2ccccc21`, the activity change, negative = inhibition is -19.4% (inactive).
Same read-out and setting: then `Cc1ccc(C(C)C)c(OCCn2c(=S)[nH]c3cccc(C)c32)c1`, with 35.3% (inactive); and `Cc1ccc(C(C)C)c(OCCn2c(=S)[nH]c3c(F)cccc32)c1`, with 16% (inactive).
The same measure, in the same setting: then `c1ccc(OCCn2cnc3ccccc32)cc1`, with 30.3% (inactive); and `Cc1cccc(OCCn2c(=S)[nH]c3ccc(C(F)(F)F)cc32)c1`, with 39.4% (inactive).
Same read-out and setting: then `Cc1ccc(C(C)C)c(OCCn2c(=S)[nH]c3c(C)cccc32)c1`, with 59.5% (inactive); and `Cc1ccc(C(C)C)c(OCCn2c(=S)[nH]c3c(Cl)cccc32)c1`, with -22.6% (inactive).
